Results: article PMC4189262 (Pharmacognosy Magazine, 2014)

Tests used:
human CYP1A2 = settings: ref Shimada et al. [26]; cited from earlier work
isolated rat hepatocytes [1] = assay: Lactate dehydrogenase; assay type: cell-based; settings: 60 μM, hepatocytes incubation, vs control
isolated rat hepatocytes [2] = assay: Trypan blue exclusion; settings: 60 μM, hepatocytes incubation, vs control
isolated rat hepatocytes [3] = assay: Malondialdehyde; assay type: cell-based; settings: 60 μM, hepatocytes incubation, vs control
isolated rat hepatocytes [4] = assay: Glutathione; assay type: cell-based; settings: 60 μM, hepatocytes incubation, vs control
[5] = tested on: rat pheochromocytoma PC12 cells; settings: limited supply of serum and hydrogen peroxide, ref Hong et al. [14]; cited from earlier work

O=c1c(O)c(-c2ccccc2)oc2cc(O)cc(O)c12 [galangin]
inhibitory activity on human CYP1A2 (human CYP1A2): inhibitory activity

O=c1cc(-c2ccccc2)oc2cc(O)cc(O)c12 [chrysin]
inhibitory activity on human CYP1A2 (human CYP1A2): inhibitory activity

O=c1cc(-c2ccc(O)cc2)oc2cc(O)cc(O)c12 [apigenin]
inhibitory activity on human CYP1A2 (human CYP1A2): inhibitory activity

Cn1c(CCCC(=O)O)nc2cc(N(CCCl)CCCl)ccc21 [Bendamustine]
increased LDH leakage (isolated rat hepatocytes [1]): 59% | reduction of cell viability (isolated rat hepatocytes [2]): 33% | increased MDA level (isolated rat hepatocytes [3]): 194% | depletion of cell GSH (isolated rat hepatocytes [4]): 76%

COc1cc(O)c2c(=O)c(O)c(-c3ccc(O)cc3)oc2c1 [rhamnocitrin, kempferol 7-O-methyl ether]
protective effects on oxidative damage [5]: protective effects

O=c1c(O)c(-c2ccc(O)cc2)oc2cc(O)cc(O)c12 [kaempferol]
protective effects on oxidative damage [5]: protective effects | inhibitory activity on human CYP1A2 (human CYP1A2): inhibitory activity

O=c1c(-c2ccc(O)cc2)coc2cc(O)cc(O)c12 [genistein]
inhibitory activity on human CYP1A2 (human CYP1A2): inhibitory activity

O=P1(N(CCCl)CCCl)NCCCO1 (stereo not drawn) [Cyclophosphamide]
increased LDH leakage (isolated rat hepatocytes [1]): 100% | reduction of cell viability (isolated rat hepatocytes [2]): 43% | increased MDA level (isolated rat hepatocytes [3]): 184% | depletion of cell GSH (isolated rat hepatocytes [4]): 72%
